Reference: article PMC5856786, “A DHODH inhibitor increases p53 synthesis and enhances tumor cell killing by p53 degradation blockage” (Nature Communications, 2018)

What was measured:
[1] = tested on: ARN8 cells; assay: BrdU/PI flow cytometry, cell cycle distribution; type: cell-based, human
Protocol: (§1) Cell cycle distribution analysis was performed on a Becton Dickinson FACScan flow cytometer or FACSCalibur (BD Biosciences) following staining with propidium iodide (PI) or dual labeling with BrdU and PI[36]. These assays were analyzed using CellQuest Pro (BD Biosciences).

[2] = tested on: RNA levels in ARN8 cells; assay: RNASeq differential expression and gene ontology analysis; type: cell-based, human; details: ARN8, 5 h
Source text: Libraries were generated using the NEBNext Ultra Directional RNA Library Prep Kit for Illumina (New England Biolabs). Data are deposited at GEO with the accession code: GSE87577. […] Differential expression and gene ontology analysis are in Supplementary Data 1. Values correspond to the average of three biological repeats.

[3] = tested on: ARN8 cells; assay: SRB growth/viability assay, ARN8; type: cell-based, human; details: for effect on cell growth and p53 activation in presence of excess uridine: uridine 100 μM
Protocol: SRB assays measuring protein content were performed in 96-well plates as previously described.

[4] = tested on: p53-dependent transcription in ARN8 human melanoma cells; assay: p53-dependent transcription reporter (CPRG assay) in ARN8 cells; type: cell-based; details: cultured cells; authors' response in peer review file
Protocol: A 20,000 compound library was purchased from ChemBridge consisting of 10,000 from the DIVERSet and 10,000 from the CombiSet libraries. […] A total of 30,000 additional compounds from the ChemBridge DIVERSet that were previously screened in a T22 cell background[12] were re-screened in ARN8 cells at 5 µM. The ChemBridge codes for these compounds can be made available upon request. All chemical synthesis is detailed in Supplementary Information with NMR spectra and reaction schemes detailed in Supplementary Figs. 13–19.

[5] = tested on: ARN8 cells; assay: PI flow cytometry, sub-G1 cells, ARN8; type: cell-based, human; details: for DMSO control subtracted effect (cells in sub-G1) / sub-G1 cells: ARN8 72 h
Protocol: as §1

[6] = tested on: p53 and p53-induced proteins in ARN8 cells; assay: Western blotting of p53, hdm2 and p21 levels; type: cell-based, human; details: ARN8 melanoma cells
Protocol: Levels of p53, as well as downstream targets hdm2 (human mdm2) and p21 were determined. Levels of gapdh were used to monitor protein loading. e ARN8 or HNDF cells were treated with the indicated compound concentrations for 72 h and subjected to MTT assays. […] Incorporation of ^35S in the p53 immunoprecipitate was determined by autoradiography. The experiment is shown in duplicate
(§2) Protein extracts were prepared in 1× LDS sample buffer (Invitrogen) with 100 mM DTT and separated and transferred using the Invitrogen western blotting system except in Supplementary Fig. 1c where the BioRad western blotting system was used. HRP-conjugated secondary antibodies were obtained from Dako (#P016102 and #P0211702) or Santa Cruz (#SC-2020). Immunofluorescence was performed by fixing cells in 4% paraformaldehyde freshly made in PBS for 10 min at 37 °C. Following fixation, cells were permeabilized in 0.15% Triton X-100 for 1–2 min at 37 °C followed by staining with the indicated antibodies. Images were taken using Olympus IX-71 microscope controlled by DeltaVision SoftWoRx. Image stacks were deconvolved, quick-projected and saved as tiff images to be processed using Adobe Photoshop. Antibodies to specific antigens are listed in Supplementary Table 8. All original films for blots in Fig. 1 are shown in Supplementary Figs. 9–12.

[7] = tested on: DNA damage response markers in ARN8 cells; assay: Western blotting of DNA damage response markers; type: cell-based, human
Protocol: as §2, with “Image stacks were deconvolved, quick-projected and saved as tiff images to be processed using Adobe Photoshop. Antibodies to specific antigens are listed in Supplementary Table 8. All original films for blots in Fig. 1 are shown in Supplementary Figs. 9–12.” left out
Protein levels were analyzed by western blotting and relative p53 levels quantified using […]
for 1 h prior to the addition of hydroxyurea (HU) or vehicle control for a further 3 h and analyzed by western blotting. gapdh was used as loading control. d) ARN8 cells were treated […]
(Sigma, #N9162) for a further 2 h. Samples were lysed in 2 × LDS buffer (Invitrogen) and levels of P-ATM and ATM determined. α-tubulin was detected for loading control. e) ARN8 […]
of NCS for a further 2 h. Samples were lysed as in d) and levels of P-Ser15 p53 and γ-H2AX were determined. gapdh was used as loading control. f−g) ARN8 cells were treated with […]
(Ser 345) and chk1 were detected. […]

[8] = tested on: P-chk1 (Ser 345)/chk1 in ARN8 cells; assay: P-chk1/chk1 ratio by western blotting, ARN8; type: cell-based, human; details: first blot (taken as ARN8)
Source text: (Ser 345) and chk1 were detected. Ponceau S staining was used to monitor loading. […]

SMILES: O=C(NC1CCCc2c1cnn2-c1ccccc1F)c1onc2c1CCCC2 (centres unmarked) [HZ05]
- accumulation of cells in S-phase [1]: accumulation of ARN8 cells in S-phase
- log2FoldChange, drug vs DMSO, gene ENSG00000121101 ([2]; sheet Drug HZ05vsDMSO (5 μM)): -2.498
- log2FoldChange, drug vs DMSO, gene ENSG00000197153 ([2]; sheet Drug HZ05vsDMSO (5 μM)): -1.694
- log2FoldChange, drug vs DMSO, gene ENSG00000204569 ([2]; sheet Drug HZ05vsDMSO (5 μM)): -2.424
- log2FoldChange, drug vs DMSO, gene ENSG00000221926 ([2]; sheet Drug HZ05vsDMSO (5 μM)): -1.667
- log2FoldChange, drug vs DMSO, gene ENSG00000276410 ([2]; sheet Drug HZ05vsDMSO (5 μM)): -1.7121
- effect of serum albumin concentration on activity ([3]; ARN8, 72 h, increasing BSA): affected to a lesser degree than brequinar
- effect on cell growth and p53 activation in presence of excess uridine ([3]; ARN8): prevented by addition of excess uridine
- concentration reducing cell viability or growth ([3]; cultured cells, authors' response in peer review file): ~160 nM
- concentration activating p53-dependent transcription [4]: below 40 nM
- DMSO control subtracted effect (cells in sub-G1) ([5]; HZ05 250 nM + nutlin-3a 0 µM): 0.06
- DMSO control subtracted effect (cells in sub-G1) ([5]; HZ05 250 nM + nutlin-3a 5 µM): 0.27
- DMSO control subtracted effect (cells in sub-G1) ([5]; HZ05 250 nM + nutlin-3a 10 µM): 0.48
- DMSO control subtracted effect (cells in sub-G1) ([5]; HZ05 250 nM + nutlin-3a 15 µM): 0.69
- DMSO control subtracted effect (cells in sub-G1) ([5]; HZ05 250 nM + nutlin-3a […]): 0.61
- sub-G1 cells ([5]; HZ05 400 nM (Fig. 6c)): 16.61%
- sub-G1 cells ([5]; HZ05 400 nM + nutlin-3a 1 μM): 36.73%
- sub-G1 cells ([5]; HZ05 400 nM + nutlin-3a 2.5 μM): 46.63%
- sub-G1 cells ([5]; HZ05 400 nM + nutlin-3a 5 μM): 54.06%
- DMSO control subtracted effect (cells in sub-G1) ([5]; HZ05 500 nM + nutlin-3a 0 µM): 0.08
- DMSO control subtracted effect (cells in sub-G1) ([5]; HZ05 500 nM + nutlin-3a 5 µM): 0.35
- DMSO control subtracted effect (cells in sub-G1) ([5]; HZ05 500 nM + nutlin-3a 10 µM): 0.60
- DMSO control subtracted effect (cells in sub-G1) ([5]; HZ05 500 nM + nutlin-3a 15 µM): 0.67
- DMSO control subtracted effect (cells in sub-G1) ([5]; HZ05 500 nM + nutlin-3a […]): 0.58
- sub-G1 cells ([5]; HZ05 1 μM (Fig. 6b)): 31.06%
- DMSO control subtracted effect (cells in sub-G1) ([5]; HZ05 1000 nM + nutlin-3a 10 µM): 0.56
- DMSO control subtracted effect (cells in sub-G1) ([5]; HZ05 1000 nM + nutlin-3a 15 µM): 0.71
- DMSO control subtracted effect (cells in sub-G1) ([5]; HZ05 1000 nM + nutlin-3a […]): 0.62
- sub-G1 cells ([5]; HZ05 2.5 μM (Fig. 6b)): 35.04%
- DMSO control subtracted effect (cells in sub-G1) ([5]; HZ05 […] + nutlin-3a 0 µM): 0.03
- DMSO control subtracted effect (cells in sub-G1) ([5]; HZ05 […] + nutlin-3a 5 µM): 0.19
- DMSO control subtracted effect (cells in sub-G1) ([5]; HZ05 […] + nutlin-3a 10 µM): 0.39
- DMSO control subtracted effect (cells in sub-G1) ([5]; HZ05 […] + nutlin-3a 15 µM): 0.63
- synergy with nutlin-3a (cell kill) ([5]; ARN8 in vitro, 72 h): strong synergistic cell kill

SMILES: O=C(NC1CCCc2c1cnn2-c1ccccc1F)c1ccccn1 (centres unmarked) [HZ00]
- levels of p53 and p53-induced proteins [6]: increased the levels of p53 and p53-induced proteins
- accumulation of cells in S-phase [1]: accumulates ARN8 cells in S-phase
- log2FoldChange, drug vs DMSO, gene ENSG00000166436 ([2]; sheet Drug HZ00vsDMSO (20 μM)): -1.5997
- log2FoldChange, drug vs DMSO, gene ENSG00000197153 ([2]; sheet Drug HZ00vsDMSO (20 μM)): -1.477
- log2FoldChange, drug vs DMSO, gene ENSG00000204569 ([2]; sheet Drug HZ00vsDMSO (20 μM)): -2.244
- log2FoldChange, drug vs DMSO, gene ENSG00000221926 ([2]; sheet Drug HZ00vsDMSO (20 μM)): -1.707
- log2FoldChange, drug vs DMSO, gene ENSG00000277224 ([2]; sheet Drug HZ00vsDMSO (20 μM)): -1.408
- induction of DNA damage response markers [7]: did not observe any induction
- effect on cell growth and p53 activation in presence of excess uridine ([3]; ARN8): completely abolished
- synergy with nutlin-3 (cell kill) ([5]; ARN8 in vitro, 72 h, additivity and Bliss independence models): synergistic cell kill
- P-chk1/chk1 ([8]; HZ00 10 µM, 24 h): 1.02
- P-chk1/chk1 ([8]; HZ00 10 µM, 48 h): 1.28
- P-chk1/chk1 ([8]; HZ00 10 µM, 72 h): 0.78
- P-chk1/chk1 ([8]; HZ00 20 µM, 24 h): 0.94
- P-chk1/chk1 ([8]; HZ00 20 µM, 48 h): 1.41
- P-chk1/chk1 ([8]; HZ00 20 µM, 72 h): 0.87
